Measurements from patent publication US7585939B2, “Chromatin peptides blocking human HIF-1α gene and modulating the downstream related genes” (Geneblue Corporation, priority 2005, dated 2009).
Where no end group is shown, it is not given here.

What was measured:
Breast cancer = experiment: Treatment of breast cancer in dogs; type: in vivo; details: 0.5 mg injected directly to the tumor every 15 days; 20th day
Description: Breast cancer were found in dogs, with tumor size of 45 mm×50 mm. NH2-Lys Arg Ala Ser Arg Asn Lys Ser Glu Lys Lys Arg Arg-COOH (SEQ ID NO: 20) was directly injected to the tumor, with 0.5 mg each time, and administration was given every 15 days.

[1] = system: human breast cancer cell line 0404 MDA-MB-435; experiment: MDA-MB-435 human breast cancer animal model in BALB/c-nu nude mice; type: in vivo, BALB/c-nu female nude mice
Description: The experiment animals with tumor size of 100-200 MM^3 were randomized into four groups, at the 14th day after inoculation of cancer cells. There were 16 mice in each group, treated with different doses of low (0.5 mg/kg), medium (2 mg/kg), and high (5 mg/kg). The control group was treated with normal saline. Administer injection to the tumor surroundings every day after inoculation. The growth tumor volume was measured every 3 days. All experiment mice were killed at the 21st day; tumor growth rate was measured by volume and weight.

small cell lung cancer = experiment: Treatment of patient with small cell lung cancer with micrometastasis to liver; type: in vivo, human patient; details: 5 mg i.v. every 10 days
Description: Patient with small cell lung cancer, at middle and advanced stage, had micrometastasis to liver. […] Administer intravenous injection every 10 days, with 5 mg each time. 15 days later, dyspnoea and referred pain all vanished.

[2] = system: lung cancer existing carcinomatous metastasis to marrow; experiment: Treatment of patient with lung cancer with metastasis to marrow; type: in vivo, human patient; details: 2 mg i.v. every 5 days
Description: Patient with lung cancer existing carcinomatous metastasis to marrow conducted radiotherapy. […] Intravenous injections were given every 5 days, with a dose of 2 mg each time, and one month as a course of treatment. In addition, antibiotics were accompanied to control complicated infection.

[3] = system: highly metastatic tumor HCT of human colon carcinoma cell line
Description: The highly metastatic tumor HCT of human colon carcinoma cell line was inoculated into the forelimb armpit of BALB/c-nu, a kind of female nude mouse, with amount of 5 million tumor cells/per mouse. Five days later, the area of tumor cells implanted was directly treated by injection with the above-mentioned 14 mer peptide solution, by a dose of 5 mg/kg daily. The drug treatment group and control (saline) group were set up, with 25 mice in each side. The experiment mice were killed after 21 days, measuring the tumor weight. After weighing the tumor taken from each mouse, keep it in 4% formaldehyde. Paraffin section shed paraffin for 10 minutes through xylene, then deal with alcohol, stain in hematoxylin, and then stains with 0.5% eosine ethanol. After that, mount with neutral gum. Analyze under microscope and take films.

[4] = with radiotherapy and antibiotics

For “NH2-Lys Arg Ala Ser Arg Asn Lys Ser Glu Lys Lys Arg Arg-COOH (H-KRASRNKSEKKRR-OH) [SEQ ID NO: 20]”, the “tumor (size 45 mm×50 mm)” value (Breast cancer) was “Tumor disappeared”.
“NH2-Arg Lys Glu Lys Ser Arg Asp Ala Ala Arg-COOH (H-RKEKSRDAAR-OH) [10 mer peptide]” was tested, and the “breast cancer growth in the animal model” value ([1]; conclusion from Table 4) was “inhibit breast cancer growth”, the “The volume of tumor sizes on average” value ([1]; high dose 5 mg/kg daily, 3rd day) was 1.408 CM^3 and the “The volume of tumor sizes on average” value ([1]; high dose 5 mg/kg daily, 7th day) was 1.461 CM^3. The “The volume of tumor sizes on average” value ([1]; high dose 5 mg/kg daily, 10th day) was 1.253 CM^3, the “The volume of tumor sizes on average” value ([1]; high dose 5 mg/kg daily, 14th day) was 2.211 CM^3 and the “The volume of tumor sizes on average” value ([1]; high dose 5 mg/kg daily, 17th day) was 2.3635 CM^3. The “The volume of tumor sizes on average” value ([1]; high dose 5 mg/kg daily, 21st day) was 1.793 CM^3, the “The volume of tumor sizes on average” value ([1]; low dose 0.5 mg/kg daily, 3rd day) was 1.475 CM^3 and the “The volume of tumor sizes on average” value ([1]; low dose 0.5 mg/kg daily, 7th day) was 3.313 CM^3. The “The volume of tumor sizes on average” value ([1]; low dose 0.5 mg/kg daily, 10th day) was 4.97 CM^3, the “The volume of tumor sizes on average” value ([1]; low dose 0.5 mg/kg daily, 14th day) was 7.668 CM^3 and the “The volume of tumor sizes on average” value ([1]; low dose 0.5 mg/kg daily, 17th day) was 8.482 CM^3. For the same substance, the “The volume of tumor sizes on average” value ([1]; low dose 0.5 mg/kg daily, 21st day) was 8.953 CM^3, the “The volume of tumor sizes on average” value ([1]; medium dose 2 mg/kg daily, 3rd day) was 1.295 CM^3 and the “The volume of tumor sizes on average” value ([1]; medium dose 2 mg/kg daily, 7th day) was 2.133 CM^3. For the same substance, the “The volume of tumor sizes on average” value ([1]; medium dose 2 mg/kg daily, 10th day) was 2.721 CM^3, the “The volume of tumor sizes on average” value ([1]; medium dose 2 mg/kg daily, 14th day) was 4.879 CM^3 and the “The volume of tumor sizes on average” value ([1]; medium dose 2 mg/kg daily, 17th day) was 6.274 CM^3. For the same substance, the “The volume of tumor sizes on average” value ([1]; medium dose 2 mg/kg daily, 21st day) was 6.119 CM^3.
For “NH2-Arg Lys Glu Lys Ser Arg Asp Ala Ala Arg Cys Arg Arg-COOH (H-RKEKSRDAARCRR-OH) [13mer peptide]”, the “microscopic repeated test of sputum” value (small cell lung cancer; 90th day) was “no malignant cells falling off”, the biopsy (small cell lung cancer; 100th day) was “no malignant cells” and the “dyspnoea and referred pain” value (small cell lung cancer; 15 days later) was “all vanished”.
RRKEKSRDAARSRR [14 mer peptide] was tested, and the cancer status ([2]; one month as a course) was “cancer free three months later”, the Skeleton ache symptom [2, 4] was “decreased after five days” and the osteodynia [2, 4] was “disappeared 20 days later”. The “experiment mice in the treatment group with tumors totally disappeared” value ([3]; 5 mg/kg daily injected at tumor area from day 5, killed after 21 days, 25 mice per group) was “four” and the “pathological section of tumor” value ([3]; 5 mg/kg daily, treatment group vs saline control, FIG. 1(A)/1(B)) was “a lot of apoptotic bodies and cell debris were found in the central part of the tumor”.
